According to patent US8080264B2, “Natural composition for curing hepatitis-B, methods for making the same and pharmaceutical formulations thereof” (Himalaya Global Holdings Ltd., priority 2004, dated 2011):

System: HepG2 cells
Assay: Hepatoprotective effects in vitro against TBH oxidative damage
Conditions: MTT, TBH challenge

CC(C)(C)OO [TBH, Tertiary Butyl Hydro peroxide]
Survival (%): 52.53%
